The target of assay [1] is T1, MC1-R (B-16 mouse melanoma cells) (Mus musculus, UniProt Q01727).
T1 construct: membranes prepared from hMC3-R, hMC4-R, hMC5-R, and B-16 mouse melanoma cells (containing MC1-R); endogenous in cells; host or cells: B-16 mouse melanoma cells (membranes)
Nature of the assay: Competitive inhibition binding assay, 125I-NDP-α-MSH, MC1-R. Conditions: 1 μM test compound; 0.4 nM 125I-NDP-α-MSH; B-16 mouse melanoma cell membranes; mean of triplicates; results less than 0% reported as 0%. How it is done:
(§1) A competitive inhibition binding assay was conducted using membranes prepared from hMC3-R, hMC4-R, hMC5-R, and B-16 mouse melanoma cells (containing MC1-R) using 0.4 nM ^125I-NDP-α-MSH (New England Nuclear, Boston, Mass., USA) in 50 mM HEPES buffer containing 1 mM MgCl2, 2 mM CaCl2, and 5 mM KCl, at pH 7.2. The assay tube also contained a chosen concentration of the test compound of this invention, typically a 1 μM concentration, for determining its efficacy in inhibiting the binding of ^125I-NDP-α-MSH to its receptor.
(§2) Incubation was for 90 minutes at room temperature, after which the assay mixture was filtered and the membranes washed three times with ice cold buffer. The filter was dried and counted in a gamma counter for remaining radioactivity bound to the membranes. 100% specific binding was defined as the difference in radioactivity (cpm) bound to cell membranes in the absence and presence of 1 μM α-MSH. […] Each assay was conducted in triplicate and the actual mean values are described.

In the next assay the target is T2, hMC3-R (Homo sapiens, UniProt P41968).
T2 construct: expressed in transfected cells
T2 sequence (P41968 whole entry): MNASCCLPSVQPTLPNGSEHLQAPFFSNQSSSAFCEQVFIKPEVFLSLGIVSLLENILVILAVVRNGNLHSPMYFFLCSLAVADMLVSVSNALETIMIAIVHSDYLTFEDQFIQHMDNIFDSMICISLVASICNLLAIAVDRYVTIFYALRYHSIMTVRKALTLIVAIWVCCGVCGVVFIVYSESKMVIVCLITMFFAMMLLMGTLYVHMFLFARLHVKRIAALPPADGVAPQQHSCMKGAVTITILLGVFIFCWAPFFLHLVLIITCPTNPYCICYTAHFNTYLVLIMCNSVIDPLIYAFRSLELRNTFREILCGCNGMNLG
Nature of the assay: Competitive inhibition binding assay, 125I-NDP-α-MSH, hMC3-R. The note with it: 1 μM test compound, 0.4 nM 125I-NDP-α-MSH, hMC3-R membranes, mean of triplicates, results less than 0% reported as 0%; for inhibition at 1 µM: read-out: Inhibition at 1 μM MC3-R. As for the experimental part:
as §1, §2

For another assay, the target named is T3, hMC4-R (Homo sapiens, UniProt P32245).
T3 construct: expressed in transfected cells
T3 sequence (P32245 whole entry): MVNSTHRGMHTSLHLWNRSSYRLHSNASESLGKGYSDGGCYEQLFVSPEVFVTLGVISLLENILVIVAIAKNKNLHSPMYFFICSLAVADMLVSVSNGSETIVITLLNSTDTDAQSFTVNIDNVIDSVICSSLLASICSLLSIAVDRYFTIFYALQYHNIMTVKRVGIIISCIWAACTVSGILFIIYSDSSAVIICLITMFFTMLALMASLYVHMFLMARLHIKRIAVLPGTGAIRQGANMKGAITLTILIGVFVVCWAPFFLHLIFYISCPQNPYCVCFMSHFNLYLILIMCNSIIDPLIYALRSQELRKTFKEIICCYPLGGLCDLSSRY
In words: Competitive inhibition binding assay, 125I-NDP-α-MSH, hMC4-R. Conditions: 1 μM test compound, 0.4 nM 125I-NDP-α-MSH, hMC4-R membranes, mean of triplicates, results less than 0% reported as 0%; for inhibition at 1 µM: read-out: Inhibition at 1 μM MC4-R. How it is done:
as §1, §2

The next assay deals with T4, hMC5-R (Homo sapiens, UniProt P33032).
T4 construct: expressed in transfected cells
T4 sequence (P33032 whole entry): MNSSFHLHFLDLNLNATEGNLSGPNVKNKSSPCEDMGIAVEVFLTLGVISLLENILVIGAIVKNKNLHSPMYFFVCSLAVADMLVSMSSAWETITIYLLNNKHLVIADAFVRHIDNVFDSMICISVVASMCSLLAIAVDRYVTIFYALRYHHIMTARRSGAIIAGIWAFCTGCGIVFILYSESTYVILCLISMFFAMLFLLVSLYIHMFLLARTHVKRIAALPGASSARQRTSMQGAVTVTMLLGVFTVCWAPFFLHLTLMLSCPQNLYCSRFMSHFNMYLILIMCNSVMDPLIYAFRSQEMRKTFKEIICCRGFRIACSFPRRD
In words: Competitive inhibition binding assay, 125I-NDP-α-MSH, hMC5-R. Conditions: 1 μM test compound, 0.4 nM 125I-NDP-α-MSH, hMC5-R membranes, mean of triplicates, results less than 0% reported as 0%; for inhibition at 1 µM: read-out: Inhibition at 1 μM MC5-R. How it is done: as §1, §2

For assay [2], the target named is T5, MC5-R (HEK-293 cells expressing MC5-R) (Homo sapiens, UniProt P33032).
T5 construct: expressed in transfected cells; host or cells: HEK-293
T5 sequence (P33032 whole entry): as above
In words: Ki determination by the method of Example 3, MC5-R. In kind it is cell-based.

For assay [3], the target named is T1, MC1-R (B-16 mouse melanoma cells). In words: Ki determination by the method of Example 3, MC1-R. It is filed as cell-based.
Assay [4] concerns the target T6, MC3-R (HEK-293 cells expressing MC3-R) (Homo sapiens, UniProt P41968).
T6 construct: expressed in transfected cells; host or cells: HEK-293
Nature of the assay: Ki determination by the method of Example 3, MC3-R. In kind it is cell-based. The note with it: bound in μM.

The target of assay [5] is T7, MC4-R (HEK-293 cells expressing MC4-R) (Homo sapiens, UniProt P32245).
T7 construct: expressed in transfected cells; host or cells: HEK-293
T7 sequence (P32245 whole entry): as the sequence (P32245 whole entry) above
In words: Ki determination by the method of Example 3, MC4-R. In kind it is cell-based. Conditions: bound in μM.

Like-named read-outs stand apart in the source and are kept apart here. Non-standard residues stand in square brackets, D forms with d. Residues, ends and D or L forms follow the SMILES beside them. *: point of attachment. Hyp = O=C(O)[C@@H]1C[C@@H](O)CN1; Nle = CCCC[C@H](N)C(=O)O; NH(CH2)3NH2 = NCCCN*; Bn = c1ccc(C*)cc1

One may read the inhibition as the percentage by which the read-out fell short of the control. A word on the Ki: it is the dissociation constant of the complex between target and ligand, obtained from inhibition or displacement. For orientation: Inhibition means the percentage by which the read-out fell short of the control. Lower therefore signals little suppression.

T1 sequence (Q01727 whole entry): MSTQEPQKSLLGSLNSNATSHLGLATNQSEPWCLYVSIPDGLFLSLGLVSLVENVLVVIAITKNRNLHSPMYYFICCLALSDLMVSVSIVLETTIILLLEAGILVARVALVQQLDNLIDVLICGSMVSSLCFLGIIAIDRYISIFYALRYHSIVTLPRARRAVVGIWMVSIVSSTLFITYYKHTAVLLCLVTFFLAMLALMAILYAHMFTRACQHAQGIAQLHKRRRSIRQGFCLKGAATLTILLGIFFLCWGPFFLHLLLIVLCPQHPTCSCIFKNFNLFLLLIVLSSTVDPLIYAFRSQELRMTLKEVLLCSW
T6 sequence (P41968 whole entry): as the sequence (P41968 whole entry) above

Take `NCCCNC(=O)[C@@H]1C[C@@H](OCc2ccccc2)CN1C(=O)[C@@H](Cc1ccc(Cl)cc1)NC(=O)[C@@H]1Cc2ccccc2CN1` [Example 21]: the inhibition at 1 µM stood at 40% in assay [1], 6% at hMC3-R, 29% at hMC4-R and 48% at hMC5-R. The inhibitory constant (Ki) in assay [2] (value in nM, read-out: Ki (nM) MC5-R) is 1150 nM.
Turning to `[2H]N[C@@H](Cc1cnc[nH]1)C(=O)N[C@@H](Cc1ccccc1)C(=O)N1C[C@H](OCc2ccccc2)C[C@H]1C(=O)NCCCCN` [Example 25], the inhibition at 1 µM in assay [1] is 50%; on hMC3-R it was 12%; at hMC4-R, 2%; at hMC5-R, 7%.
In the case of `[2H]N[C@@H](Cc1cnc[nH]1)C(=O)N[C@@H](Cc1ccccc1)C(=O)N1C[C@H](OCc2ccccc2)C[C@H]1C(=O)NCCCN` [Example 12], the inhibition at 1 µM in assay [1] turned out to be 48%; at hMC3-R, 0%; at hMC4-R, 0%; at hMC5-R it was 2%.
Turning to `NCCCNC(=O)[C@@H]1C[C@@H](OCc2ccccc2)CN1C(=O)[C@@H](Cc1ccccc1)NC(=O)[C@H]1Cc2ccccc2CN1` [Example 24], the inhibition at 1 µM in assay [1] was 17%; at hMC3-R, 0%; at hMC4-R, 5%; on hMC5-R it was 0%.
As for `[2H]N[C@@H](Cc1cnc[nH]1)C(=O)N[C@@H](Cc1ccccc1)C(=O)N1C[C@H](OCc2ccccc2)C[C@H]1C(N)=O` [Example 28, His-D-Phe-Hyp(Bzl)-NH2], the inhibition at 1 µM amounted to 0% in assay [1], 0% on hMC3-R, 0% at hMC4-R and 5% at hMC5-R.
Take `[2H]N[C@@H](Cc1cnc[nH]1)C(=O)N[C@@H](Cc1ccccc1)C(=O)N1C[C@H](OCc2ccccc2)C[C@H]1C(=O)NCCCCCCN` [Example 27]: the inhibition at 1 µM in assay [1] stood at 36%; at hMC3-R, 0%; on hMC4-R it was 2%; at hMC5-R it was 8%.
On to `[2H]N1CCC[C@@H]1C(=O)N[C@@H](Cc1ccccc1)C(=O)N1C[C@H](OCc2ccccc2)C[C@H]1C(=O)NCCCN` [Example 44], for which the inhibition at 1 µM came out at 13% in assay [1], 0% at hMC3-R, 11% on hMC4-R and 0% at hMC5-R.
In the case of `[2H]N[C@@H](Cc1ccccc1)C(=O)N1C2CC[C@H](COc3ccc4ccccc4c3)N2C(=O)[C@@H]1CCCCN` (stereo partly drawn) [Example 38], in assay [1], the “Inhibition at 1 μM MC1-R” value came to 0%. Further, at hMC3-R, the “Inhibition at 1 μM MC3-R” value was 0%. Moreover, on hMC4-R, the “Inhibition at 1 μM MC4-R” value amounted to 13%. For the same compound, on hMC5-R, the “Inhibition at 1 μM MC5-R” value worked out at 1%.
For `NCCCNC(=O)[C@@H]1C[C@@H](OCc2ccccc2)CN1C(=O)[C@@H](Cc1ccc(Cl)cc1)NC(=O)[C@H]1Cc2ccccc2CN1` [Example 22], the inhibition at 1 µM in assay [1] is 29%; on hMC3-R, 10%; at hMC4-R, 27%; on hMC5-R, 38%.
For the compound `C[C@@H]1CN(C(=O)[C@H](N)Cc2ccc(Cl)cc2)[C@@H](CCCNC(=N)N)CN1CCc1ccc2ccccc2c1` [Example 15], the “Inhibition at 1 μM MC1-R” value in assay [1] is 85%. For the same compound, the “Inhibition at 1 μM MC3-R” value at hMC3-R was 46%. For the same compound, the “Inhibition at 1 μM MC4-R” value on hMC4-R was found to be 43%. The “Inhibition at 1 μM MC5-R” value on hMC5-R is reported as 34%.
Take `NCCCNC(=O)[C@@H]1C[C@@H](OCc2ccccc2)CN1C(=O)[C@@H](Cc1ccccc1)NC(=O)[C@@H]1Cc2ccccc2CN1` [Example 23]: the inhibition at 1 µM is 34% in assay [1], 0% on hMC3-R, 6% at hMC4-R and 14% on hMC5-R.
With `[2H]N[C@@H](Cc1cnc[nH]1)C(=O)N[C@@H](Cc1ccccc1)C(=O)N1C2CC[C@H](COc3ccc4ccccc4c3)N2C(=O)[C@@H]1CCCCN` (stereo partly drawn) [Example 42], the “Inhibition at 1 μM MC1-R” value in assay [1] was found to be 18%. At hMC3-R, the “Inhibition at 1 μM MC3-R” value worked out at 0%. On hMC4-R, the “Inhibition at 1 μM MC4-R” value came to 10%. Also, the “Inhibition at 1 μM MC5-R” value at hMC5-R is recorded as 0%.
As for `CCCC[C@H](NC(C)=O)C(=O)N[C@@H](C)C(=O)N[C@@H](Cc1cnc[nH]1)C(=O)N[C@H](Cc1ccccc1)C(=O)N1C[C@H](OCc2ccccc2)C[C@H]1C(=O)NCCCN` [Example 9, Ac-Nle-Ala-His-D-Phe-Hyp(Bzl)-NH(CH2)3—NH2] (Ac-[Nle]AH[dF][Hyp](Bn)-{NH(CH2)3NH2}), the inhibition at 1 µM in assay [1] turned out to be 91%; on hMC3-R, 13%; on hMC4-R it was 8%; at hMC5-R it was 25%. Further, the inhibition constant (Ki) was 10 nM in assay [3] (MC1-R, values in nM, read-out: Ki (nM) MC1-R); > 1 µM in assay [4]; > 1 µM in assay [5]; > 1000 nM in assay [2] (bound in μM, read-out: Ki MC5-R).
`[2H]N[C@@H](Cc1ccccc1)C(=O)N1C2CC[C@H](COc3ccccc3)N2C(=O)[C@@H]1CCCCN` (stereo partly drawn) [Example 36]: the “Inhibition at 1 μM MC1-R” value in assay [1] was 0%. Also, the “Inhibition at 1 μM MC3-R” value on hMC3-R came out at 41%. The “Inhibition at 1 μM MC4-R” value at hMC4-R is on record as 8%. On hMC5-R, the “Inhibition at 1 μM MC5-R” value stood at 0%.
Take `CCCC[C@H](N)C(=O)N[C@@H](C)C(=O)N[C@@H](Cc1cnc[nH]1)C(=O)N[C@H](Cc1ccccc1)C(=O)N1C[C@H](OCc2ccccc2)C[C@H]1C(=O)NCCCN` [Example 10] (H-[Nle]AH[dF][Hyp](Bn)-{NH(CH2)3NH2}): the inhibition at 1 µM was found to be 83% in assay [1], 6% on hMC3-R, 2% at hMC4-R and 7% on hMC5-R. This compound also yielded a Ki in assay [3] of 70 nM.
`CCCCCCC(=O)N[C@@H](Cc1cnc[nH]1)C(=O)N[C@H](Cc1ccccc1)C(=O)N1C[C@H](OCc2ccccc2)C[C@H]1C(=O)NCCCNC(=N)N` [Example 30, Heptanoyl-His-D-Phe-Hyp(Bzl)-NH(CH2)3—NH—C(═NH)—NH2]: in assay [1], the “Inhibition at 1 μM MC1-R” value turned out to be 92%. At hMC3-R, the “Inhibition at 1 μM MC3-R” value was determined as 7%. Also, the “Inhibition at 1 μM MC4-R” value at hMC4-R was 1%. Further, the “Inhibition at 1 μM MC5-R” value at hMC5-R is recorded as 1%.
With `[2H]N[C@@H](Cc1cnc[nH]1)C(=O)N[C@@H](Cc1ccccc1)C(=O)N1C[C@H](OCc2ccccc2)C[C@H]1C(=O)NCCCNC(=N)N` [Example 29], the inhibition at 1 µM worked out at 0% in assay [1], 0% at hMC3-R, 6% at hMC4-R and 4% on hMC5-R.
Consider `[2H]N[C@@H](Cc1cnc[nH]1)C(=O)N[C@@H](Cc1ccccc1)C(=O)N1C[C@H](OCc2ccccc2)C[C@H]1C(=O)NCCCCCN` [Example 26], for which the inhibition at 1 µM came out at 42% in assay [1], 0% on hMC3-R, 1% at hMC4-R and 7% on hMC5-R.
